The source of these data is patent US7964352B2, “3′-OH unblocked nucleotides and nucleosides, base modified with labels and photocleavable, terminating groups and methods for their use in DNA sequencing” (priority 2006, dated 2011).

Where two headings read alike, the source gives them in different places.

For one experiment, the target named is T1, T[…] polymerase (Thermococcus sp., UniProt Q56366, A485L/D141A/E143A).
T1 construct: purchased
Kind of experiment: Polymerase end-point (PEP) assay, Therminator. The class given is biochemical, Thermococcus species 9°N-7. The text has this: (§1) Numerous groups have employed qualitative, Sanger-based assays to estimate relative incorporation efficiencies of terminating nucleotide analogs compared to their natural nucleotide counterparts. Although useful, the ability to assay modified nucleotide analogs in the absence of natural nucleotides is not feasible using these assays. These two limitations led to a quantitative, polymerase end-point (PEP) assay, which is utilized in a high-throughput manner for screening numerous modified nucleotides against a number of well-characterized, commercially available polymerases. Identification of lead compounds with a specific DNA polymerase could then be prioritized for further kinetic studies. The PEP assay is designed with the polymerase concentration in excess of the primer/template complex (i.e., this complex is fully bounded with polymerase at the start of the titration), thereby limiting reaction to nucleotide binding and nucleotyl coupling steps. Limiting amounts of the desired nucleotide are then titrated across the appropriate concentration range (generally three orders of magnitude) to observe extension of a dye-labeled primer by gel electrophoresis. The end-point concentration is determined from a semi-log plot where the number of moles of substrate and product are equal, called the IC50 (i.e., incorporation concentration at 50%) value.
(§2) For all polymerases evaluated in this study, 40 nM of oligo-template (5′-TACGGAGCA-[…], interrogation base is underlined and bolded) was annealed to 5 nM BODIPY-FL labeled primer (5′-TTGTAAAACGACGGCCAGT) in 1× ThermoPol buffer (20 mM Tris-HCl, pH 8.8; 10 mM (NH4)2SO4, 10 mM KCl; 2 mM MgSO4; 0.1% Triton X-100, New England BioLabs) at 80° C. for 30 seconds, 57° C. for 30 seconds, and then cooled to 4° C. The primer/template complex is then diluted by one-half (i.e., its final concentration is 2.5 nM in a volume of 10 μL) by the addition of DNA polymerase, nucleotide analog, and ThermoPol buffer. This defines the lower limit of the IC50 value for nucleotide titrations to 1.25 nM (i.e., [primer]=[primer+1]). Polymerase reactions were incubated at their appropriate temperature for 10 minutes, then cooled to 4° C. and quenched with 10 μL of stop solution (98% deionized formamide; 10 mM Na2EDTA, pH 8.0; 25 mg/mL Blue Dextran, MW 2,000,000). Stopped reactions were heated to 90° C. for 30 seconds, and then placed on ice. […] The PEP assays were performed in triplicate for each DNA polymerase/nucleotide analog combination to calculate its IC50 values±one standard deviation.
(§3) The number of activity units for eight commercially available, 3′-exonuclease deficient (3′-exo-) DNA polymerases was first determined by titration with 2′-deoxyadenosine triphosphate (dATP, concentration range from 0.1 nM to 100 nM) with the goal of reaching the PEP IC50 limit of 1.25 nM (data not shown). In general, increasing the number of units reduced the IC50 values for dATP towards this limit, with exception with Taq, THERMINATOR™, and THERMINATOR™ II. For these enzymes, there was an increase in IC50 values for dATP with increasing enzyme concentration, which was not investigated further and presumed to be due to a direct relationship with increasing enzyme concentration and phosphorolysis. For these cases, the number of units used for subsequent PEP assays were those activity units that gave the lowest IC50 values for dATP.
(§4) WW1p129 and ddATP were then titrated using the PEP assay with the eight DNA polymerases (unit activities previously defined) in the concentration range of either 0.1 nM to 100 nM, 1 nM to 1μM, 10 nM to 10μM, or 100 nM to 100 μM (see Table 1). UV-light sensitive compounds were handled at all times in low light conditions to minimize conversion to dATP.

For experiment [1], the target named is T2, AMPLITAQ DNA polymerase, FS (Taq FS) (Thermus aquaticus, UniProt P19821, F667Y/G46D).
T2 construct: purchased
As to the kind of experiment: Polymerase end-point (PEP) assay, Taq FS. The class given is biochemical. The note with it: Taq FS: 68° C.; incorporation concentration at 50%.
From the text: as §1
(§5) For all polymerases evaluated in this study, 40 nM of oligo-template (5′-TACGGAGCA-[…], interrogation base is underlined and bolded) was annealed to 5 nM BODIPY-FL labeled primer (5′-TTGTAAAACGACGGCCAGT) in 1× ThermoPol buffer (20 mM Tris-HCl, pH 8.8; 10 mM (NH4)2SO4, 10 mM KCl; 2 mM MgSO4; 0.1% Triton X-100, New England BioLabs) at 80° C. for 30 seconds, 57° C. for 30 seconds, and then cooled to 4° C. The primer/template complex is then diluted by one-half (i.e., its final concentration is 2.5 nM in a volume of 10 μL) by the addition of DNA polymerase, nucleotide analog, and ThermoPol buffer. This defines the lower limit of the IC50 value for nucleotide titrations to 1.25 nM (i.e., [primer]=[primer+1]). […]

For another experiment, the target named is T3, Taq DNA polymerase (Thermus aquaticus, UniProt P19821).
T3 construct: purchased
Kind of experiment: Polymerase end-point (PEP) assay, Taq. The class given is biochemical. The settings on record: Taq: 68° C.; incorporation concentration at 50%.
From the text: as §1, §5

Experiment [2] deals with T4, DeepVent (3′-exo-) DNA polymerase (Pyrococcus sp., UniProt Q51334, D141A/DEL493-1029/E143A).
T4 construct: purchased
As to the kind of experiment: Polymerase end-point (PEP) assay, DeepVent (3′-exo-). The class given is biochemical, Pyrococcus species GB-D.
From the text: as §1, §5

In the next experiment the target is T5, T[…] DNA polymerase (Thermococcus sp., UniProt Q56366, A485L/D141A/E143A/Y409V).
T5 construct: purchased
Kind of experiment: Polymerase end-point (PEP) assay, Therminator II. The class given is biochemical, Thermococcus species 9°N-7. The note with it: Therminator II: 75° C.; incorporation concentration at 50%.
From the text: as §1, §5

In experiment [3] the target is T6, Klenow (3′-exo-) DNA polymerase (Escherichia coli, UniProt P00582, D355A/E357A).
T6 construct: Klenow(-exo-) DNA polymerase; purchased
As to the kind of experiment: Polymerase end-point (PEP) assay, Klenow (3′-exo-). The class given is biochemical. The note with it: Klenow (3′-exo-): 37° C.; incorporation concentration at 50%.
From the text: as §1, §5

Experiment [4] addresses T7, Vent (3′-exo-) DNA polymerase (Thermococcus litoralis, UniProt P30317, D141A/DEL1082-1471/DEL495-1032/E143A).
T7 construct: purchased
As to the kind of experiment: Polymerase end-point (PEP) assay, Vent (3′-exo-). The class given is biochemical.
From the text: as §1, §5

The target in a further experiment is T8, Bst DNA polymerase (Geobacillus stearothermophilus, UniProt P52026).
T8 construct: purchased
T8 sequence (P52026 1-876): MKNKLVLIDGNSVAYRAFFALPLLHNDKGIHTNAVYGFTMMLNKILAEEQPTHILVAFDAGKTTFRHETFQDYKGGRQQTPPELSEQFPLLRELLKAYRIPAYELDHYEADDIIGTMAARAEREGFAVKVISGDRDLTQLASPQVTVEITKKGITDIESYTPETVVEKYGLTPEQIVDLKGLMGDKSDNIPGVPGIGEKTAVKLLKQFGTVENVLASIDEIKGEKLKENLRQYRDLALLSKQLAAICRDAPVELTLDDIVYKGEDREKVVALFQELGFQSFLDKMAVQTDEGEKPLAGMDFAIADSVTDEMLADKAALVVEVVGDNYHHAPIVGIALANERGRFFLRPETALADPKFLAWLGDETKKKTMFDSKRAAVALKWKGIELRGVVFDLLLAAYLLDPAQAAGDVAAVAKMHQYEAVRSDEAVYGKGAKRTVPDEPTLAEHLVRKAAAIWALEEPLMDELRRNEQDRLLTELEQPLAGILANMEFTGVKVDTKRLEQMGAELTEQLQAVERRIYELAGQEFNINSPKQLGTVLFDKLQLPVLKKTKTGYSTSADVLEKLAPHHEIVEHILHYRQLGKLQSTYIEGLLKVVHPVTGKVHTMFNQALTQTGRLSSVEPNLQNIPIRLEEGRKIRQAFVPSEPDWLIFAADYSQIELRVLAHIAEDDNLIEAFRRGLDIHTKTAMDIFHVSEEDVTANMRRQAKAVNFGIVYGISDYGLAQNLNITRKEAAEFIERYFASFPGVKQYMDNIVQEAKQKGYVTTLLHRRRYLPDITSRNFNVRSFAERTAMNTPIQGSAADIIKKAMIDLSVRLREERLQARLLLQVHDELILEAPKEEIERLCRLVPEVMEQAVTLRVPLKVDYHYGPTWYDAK
Kind of experiment: Polymerase end-point (PEP) assay, Bst. The class given is biochemical.
From the text: as §1, §2, §3, §4

[5] abbreviates: Table 2, incorporation concentration at 50%, read-out: IC50 values, Therminator.
The mark [6] stands for this setting: DeepVent (3′-exo-): 72° C., incorporation concentration at 50%, read-out: IC50 values.
The mark [7] stands for this setting: Therminator: 75° C., incorporation concentration at 50%, Table 1, read-out: IC50 values.
Setting [8] is: Vent (3′-exo-): 72° C., incorporation concentration at 50%, read-out: IC50 values.
[9] abbreviates: Bst: 65° C., IC50 = incorporation concentration at 50%, Table 1, read-out: IC50 values.
Setting [10] is: Table 2, incorporation concentration at 50%, read-out: IC50 values, Bst.

T7 sequence (P30317 other isoform, or with tags, fused parts or gaps D141A/E143A/DEL495-1032/DEL1082-1471): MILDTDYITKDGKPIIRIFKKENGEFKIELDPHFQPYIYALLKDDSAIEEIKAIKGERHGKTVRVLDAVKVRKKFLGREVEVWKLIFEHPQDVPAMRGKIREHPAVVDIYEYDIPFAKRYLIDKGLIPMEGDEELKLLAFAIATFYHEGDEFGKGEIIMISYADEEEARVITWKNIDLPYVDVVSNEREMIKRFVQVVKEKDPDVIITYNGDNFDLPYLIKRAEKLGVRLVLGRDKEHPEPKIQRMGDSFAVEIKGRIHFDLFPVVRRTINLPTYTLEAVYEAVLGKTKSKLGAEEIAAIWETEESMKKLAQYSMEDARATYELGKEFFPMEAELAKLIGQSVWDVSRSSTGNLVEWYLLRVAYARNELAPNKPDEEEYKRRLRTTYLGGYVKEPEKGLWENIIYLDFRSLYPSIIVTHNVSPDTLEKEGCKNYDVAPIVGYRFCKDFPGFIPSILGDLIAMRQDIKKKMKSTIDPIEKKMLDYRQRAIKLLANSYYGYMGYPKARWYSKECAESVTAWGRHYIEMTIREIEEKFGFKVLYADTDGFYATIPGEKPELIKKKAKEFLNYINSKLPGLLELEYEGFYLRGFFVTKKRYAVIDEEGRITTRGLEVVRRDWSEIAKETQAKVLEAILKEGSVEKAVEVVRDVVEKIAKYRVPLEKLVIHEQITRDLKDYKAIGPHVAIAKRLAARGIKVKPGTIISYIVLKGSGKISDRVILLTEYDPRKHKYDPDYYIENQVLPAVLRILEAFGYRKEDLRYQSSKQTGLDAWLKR
T3 sequence (P19821 whole entry): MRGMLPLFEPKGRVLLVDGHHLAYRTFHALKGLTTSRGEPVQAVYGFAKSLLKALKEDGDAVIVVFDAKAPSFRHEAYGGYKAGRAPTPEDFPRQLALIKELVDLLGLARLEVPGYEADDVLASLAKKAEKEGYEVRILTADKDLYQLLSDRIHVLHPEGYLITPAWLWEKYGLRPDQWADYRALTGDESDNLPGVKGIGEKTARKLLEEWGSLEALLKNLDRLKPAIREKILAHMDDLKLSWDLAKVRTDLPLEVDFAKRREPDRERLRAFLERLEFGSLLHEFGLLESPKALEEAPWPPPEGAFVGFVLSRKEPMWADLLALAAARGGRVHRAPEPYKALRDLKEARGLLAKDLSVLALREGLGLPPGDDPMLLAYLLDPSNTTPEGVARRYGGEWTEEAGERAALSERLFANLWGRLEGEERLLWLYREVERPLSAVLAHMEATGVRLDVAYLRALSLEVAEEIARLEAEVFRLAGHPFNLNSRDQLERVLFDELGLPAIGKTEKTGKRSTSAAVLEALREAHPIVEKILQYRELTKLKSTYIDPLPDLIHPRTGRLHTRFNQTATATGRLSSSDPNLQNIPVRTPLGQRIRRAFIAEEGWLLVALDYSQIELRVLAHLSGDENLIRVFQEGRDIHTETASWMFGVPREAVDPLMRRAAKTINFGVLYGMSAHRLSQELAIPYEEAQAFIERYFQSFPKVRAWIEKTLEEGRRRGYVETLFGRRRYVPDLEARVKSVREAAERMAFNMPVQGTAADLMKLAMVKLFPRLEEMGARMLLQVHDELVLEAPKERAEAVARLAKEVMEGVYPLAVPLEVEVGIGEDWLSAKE
T6 sequence (P00582 324-928 D355A/E357A): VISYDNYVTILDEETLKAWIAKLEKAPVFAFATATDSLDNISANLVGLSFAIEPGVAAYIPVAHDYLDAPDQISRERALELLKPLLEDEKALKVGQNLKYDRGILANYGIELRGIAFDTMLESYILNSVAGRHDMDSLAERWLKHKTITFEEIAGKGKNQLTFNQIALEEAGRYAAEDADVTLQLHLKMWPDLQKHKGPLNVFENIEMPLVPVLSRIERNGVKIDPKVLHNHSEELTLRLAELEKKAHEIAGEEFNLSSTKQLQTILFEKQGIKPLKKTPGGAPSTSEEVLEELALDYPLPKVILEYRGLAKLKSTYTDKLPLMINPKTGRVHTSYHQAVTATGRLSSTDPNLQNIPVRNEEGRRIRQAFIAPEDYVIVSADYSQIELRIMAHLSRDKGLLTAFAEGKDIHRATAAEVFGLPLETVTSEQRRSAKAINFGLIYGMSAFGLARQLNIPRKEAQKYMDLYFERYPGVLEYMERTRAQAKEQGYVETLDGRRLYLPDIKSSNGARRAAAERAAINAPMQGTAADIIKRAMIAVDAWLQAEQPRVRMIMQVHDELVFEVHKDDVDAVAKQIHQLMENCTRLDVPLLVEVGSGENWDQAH
T5 sequence (Q56366 whole entry D141A/E143A/Y409V/A485L): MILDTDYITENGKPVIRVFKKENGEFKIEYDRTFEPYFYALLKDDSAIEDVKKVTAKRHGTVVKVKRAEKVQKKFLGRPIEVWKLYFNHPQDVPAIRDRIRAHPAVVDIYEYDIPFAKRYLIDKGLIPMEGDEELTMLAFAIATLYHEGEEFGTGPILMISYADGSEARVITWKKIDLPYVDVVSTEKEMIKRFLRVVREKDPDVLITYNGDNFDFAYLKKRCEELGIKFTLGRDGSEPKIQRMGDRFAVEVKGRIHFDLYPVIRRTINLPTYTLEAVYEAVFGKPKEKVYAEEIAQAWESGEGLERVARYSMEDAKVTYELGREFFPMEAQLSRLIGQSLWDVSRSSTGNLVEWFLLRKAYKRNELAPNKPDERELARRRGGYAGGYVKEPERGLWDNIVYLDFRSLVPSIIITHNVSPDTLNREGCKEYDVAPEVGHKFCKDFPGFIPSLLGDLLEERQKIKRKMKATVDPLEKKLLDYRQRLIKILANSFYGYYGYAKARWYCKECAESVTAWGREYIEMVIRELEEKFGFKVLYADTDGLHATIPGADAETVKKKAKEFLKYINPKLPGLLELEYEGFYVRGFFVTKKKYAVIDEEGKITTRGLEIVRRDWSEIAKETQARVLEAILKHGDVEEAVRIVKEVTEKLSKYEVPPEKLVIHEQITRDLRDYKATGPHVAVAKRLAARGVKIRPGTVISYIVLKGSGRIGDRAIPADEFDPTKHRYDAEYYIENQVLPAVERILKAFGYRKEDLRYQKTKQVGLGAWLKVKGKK
T1 sequence (Q56366 whole entry D141A/E143A/A485L): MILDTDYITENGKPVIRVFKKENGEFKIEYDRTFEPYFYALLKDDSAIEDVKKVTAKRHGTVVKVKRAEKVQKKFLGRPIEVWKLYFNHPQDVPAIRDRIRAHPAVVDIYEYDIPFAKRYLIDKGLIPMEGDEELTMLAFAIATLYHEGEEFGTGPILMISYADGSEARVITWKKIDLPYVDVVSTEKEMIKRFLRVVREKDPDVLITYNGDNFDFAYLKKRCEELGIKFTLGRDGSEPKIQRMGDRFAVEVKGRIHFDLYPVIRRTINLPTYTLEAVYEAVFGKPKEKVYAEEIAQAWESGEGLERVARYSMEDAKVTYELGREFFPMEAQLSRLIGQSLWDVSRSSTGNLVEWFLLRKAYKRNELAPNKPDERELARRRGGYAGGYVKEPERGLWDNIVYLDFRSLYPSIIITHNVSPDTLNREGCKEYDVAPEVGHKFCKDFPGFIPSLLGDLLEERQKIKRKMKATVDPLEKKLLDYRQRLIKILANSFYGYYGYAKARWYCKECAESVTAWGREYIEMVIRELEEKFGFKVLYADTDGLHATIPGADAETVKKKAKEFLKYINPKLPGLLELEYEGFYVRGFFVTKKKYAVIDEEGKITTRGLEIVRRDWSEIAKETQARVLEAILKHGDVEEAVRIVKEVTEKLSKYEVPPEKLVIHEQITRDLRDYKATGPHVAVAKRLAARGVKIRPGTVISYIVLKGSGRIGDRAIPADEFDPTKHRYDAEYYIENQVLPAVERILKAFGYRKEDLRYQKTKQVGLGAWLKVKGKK
T2 sequence (P19821 whole entry G46D/F667Y): as the sequence (P19821 whole entry) above, with G46D, F667Y counted along it
T4 sequence (Q51334 other isoform, or with tags, fused parts or gaps D141A/E143A/DEL493-1029): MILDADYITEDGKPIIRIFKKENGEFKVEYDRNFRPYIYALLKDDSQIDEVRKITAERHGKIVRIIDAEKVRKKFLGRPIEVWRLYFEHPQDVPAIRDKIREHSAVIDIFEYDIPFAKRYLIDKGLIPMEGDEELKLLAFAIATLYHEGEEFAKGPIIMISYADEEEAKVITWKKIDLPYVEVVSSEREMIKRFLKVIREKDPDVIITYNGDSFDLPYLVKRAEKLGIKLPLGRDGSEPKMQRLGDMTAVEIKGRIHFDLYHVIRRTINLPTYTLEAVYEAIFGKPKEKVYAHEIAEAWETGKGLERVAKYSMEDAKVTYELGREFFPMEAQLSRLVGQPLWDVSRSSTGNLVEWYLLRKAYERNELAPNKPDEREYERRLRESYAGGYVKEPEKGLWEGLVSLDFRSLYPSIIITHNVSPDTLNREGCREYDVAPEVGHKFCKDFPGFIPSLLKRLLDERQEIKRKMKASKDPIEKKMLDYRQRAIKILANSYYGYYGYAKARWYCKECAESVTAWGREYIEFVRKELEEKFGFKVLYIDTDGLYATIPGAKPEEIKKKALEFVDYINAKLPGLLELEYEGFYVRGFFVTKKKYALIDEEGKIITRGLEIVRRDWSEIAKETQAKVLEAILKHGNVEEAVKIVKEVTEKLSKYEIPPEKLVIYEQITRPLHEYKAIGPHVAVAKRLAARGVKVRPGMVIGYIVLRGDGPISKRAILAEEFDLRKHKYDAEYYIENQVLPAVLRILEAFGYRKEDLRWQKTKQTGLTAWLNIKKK

With “6-JOE Labeled 5-[4-(3-Amino-1-propynyl)-2-nitrobenzyloxymethyl]-2′-deoxyuridine-5′-triphosphate [WW2p075]”, on T[…] polymerase (setting [5]), the concentration for half-maximal inhibition (IC50) came to 3.8 ± 1.1 nM.
Consider `O=[N+]([O-])c1ccccc1CNc1ncnc2c1ncn2[C@H]1C[C@H](O)[C@@H](COP(=O)(O)OP(=O)(O)OP(=O)(O)O)O1` [WW1p129, N^6-(2-Nitrobenzyl)-2′-deoxyadenosine-5′-triphosphate], for which the half-maximal inhibitory concentration (IC50) is 890 ± 60 nM in experiment [1]; 2100 ± 200 nM on Taq DNA polymerase; 11 ± 0.6 nM in experiment [2] (setting [6]); 7.8 ± 0.7 nM on T[…] DNA polymerase; 4.3 ± 0.2 nM in experiment [3]; 2.5 ± 0.4 nM on T[…] polymerase (setting [5]). The IC50 at T[…] polymerase (setting [7]) came to 3.1 ± 0.4 nM; in experiment [4] (setting [8]), 2.1 ± 0.2 nM; at Bst DNA polymerase (setting [9]), 21 ± 3 nM; at Bst DNA polymerase (setting [10]), 39 ± 9 nM.
Consider `O=c1nc(NCc2ccccc2[N+](=O)[O-])ccn1[C@H]1C[C@H](O)[C@@H](COP(=O)(O)OP(=O)(O)OP(=O)(O)O)O1` [WW2p044, N^4-(2-Nitrobenzyl)-2′-deoxycytidine-5′-triphosphate], for which the results for the concentration for half-maximal inhibition (IC50) at T[…] polymerase and at Bst DNA polymerase (setting [10]) were 1.8 ± 0.2 nM and 57 ± 11 nM, respectively.
With `O=c1[nH]c(=O)n([C@H]2C[C@H](O)[C@@H](COP(=O)(O)OP(=O)(O)OP(=O)(O)O)O2)cc1COCc1ccccc1[N+](=O)[O-]` [VL3p03085, 5-(2-Nitrobenzyloxymethyl)-2′-deoxyuridine-5′-triphosphate], the IC50 came to 1.1 ± 0.1 nM at T[…] polymerase (setting [5]) and 138 ± 38 nM on Bst DNA polymerase (setting [10]).
As to `Nc1ncnc2c1ncn2[C@H]1C[C@H](O)[C@@H](COP(=O)(O)OP(=O)(O)OP(=O)(O)O)O1` [dATP, 2′-deoxyadenosine triphosphate], the concentration for half-maximal inhibition (IC50) in experiment [1] is 5.3 ± 0.1 nM; on Taq DNA polymerase, 5.5 ± 0.5 nM; in experiment [2] it was 2.8 ± 0.2 nM; on T[…] DNA polymerase, 4.4 ± 0.6 nM; in experiment [3] it was 1.6 ± 0.1 nM; on T[…] polymerase (setting [7]) it was 2.3 ± 0.3 nM. In addition, in experiment [4], the IC50 is 1.6 ± 0.2 nM.
Consider `Nc1nc(OCc2ccc(C#CCNC(=O)c3ccc(C(=O)[O-])c(C4=c5cc6c7c(c5Oc5c4cc4c8c5CCCN8CCC4)CCC[N+]=7CCC6)c3)cc2[N+](=O)[O-])c2ncn([C@H]3C[C@H](O)[C@@H](COP(=O)(O)OP(=O)(O)OP(=O)(O)O)O3)c2n1` [WW2p121, 6-ROX Labeled O^6-[4-(3-Amino-1-propynyl)-2-nitrobenzyl]-2′-deoxyguanosine-5′-triphosphate], for which, at T[…] polymerase, the half-maximal inhibitory concentration (IC50) was found to be 6.3 ± 0.4 nM.
With `Nc1ncnc2c1ncn2[C@H]1CC[C@@H](COP(=O)(O)OP(=O)(O)OP(=O)(O)O)O1` [ddATP], the IC50 worked out at 3.3 ± 0.1 nM in experiment [1]; 12600 ± 900 nM on Taq DNA polymerase; 3400 ± 400 nM in experiment [2] (setting [6]); 230 ± 30 nM on T[…] DNA polymerase; 29 ± 5 nM in experiment [3]; 9.7 ± 1.1 nM on T[…] polymerase (setting [7]). Moreover, the values for the IC50 (in experiment [4] (setting [8]); at Bst DNA polymerase (setting [9])) were 550 ± 40 nM and 370 ± 30 nM, respectively.
Regarding `CN(C)c1ccc2c(-c3cc(C(=O)NCC#Cc4ccc(CNc5ccn([C@H]6C[C@H](O)[C@@H](COP(=O)(O)OP(=O)(O)OP(=O)(O)O)O6)c(=O)n5)c([N+](=O)[O-])c4)ccc3C(=O)[O-])c3ccc(=[N+](C)C)cc-3oc2c1` [WW2p080, 6-TAMRA Labeled N^4-[4-(3-Amino-1-propynyl)-2-nitrobenzyl]-2′-deoxycytidine-5′-triphosphate], the half-maximal inhibitory concentration (IC50) on T[…] polymerase (setting [5]) turned out to be 3 ± 0.6 nM.
As to `Nc1nc(OCc2ccccc2[N+](=O)[O-])c2ncn([C@H]3C[C@H](O)[C@@H](COP(=O)(O)OP(=O)(O)OP(=O)(O)O)O3)c2n1` [WW2p077, O^6-(2-Nitrobenzyl)-2′-deoxyguanosine-5′-triphosphate], the half-maximal inhibitory concentration (IC50) on T[…] polymerase (setting [5]) was found to be 6.9 ± 0.5 nM; on Bst DNA polymerase (setting [10]), 3800 ± 200 nM.
